Columns and labels:
[1] = Metabolic stability in human liver microsomes assessed as compound remaining at 1 uM measured upto 60 mins in presence of NADPH; assay type: ADME, Microsome; details: read-out: Stability
[2] = target: Phosphatidylinositol 4,5-bisphosphate 3-kinase catalytic subunit alpha isoform (Homo sapiens, UniProt P42336); test: Inhibition of N-terminal His6-tagged recombinant full length human PI3Kalpha expressed in baculovirus infected Sf21 insect cells at 1 uM by HTRF assay relative to control
Phosphatidylinositol 4,5-bisphosphate 3-kinase catalytic subunit alpha isoform, sequence (P42336 whole entry, canonical isoform): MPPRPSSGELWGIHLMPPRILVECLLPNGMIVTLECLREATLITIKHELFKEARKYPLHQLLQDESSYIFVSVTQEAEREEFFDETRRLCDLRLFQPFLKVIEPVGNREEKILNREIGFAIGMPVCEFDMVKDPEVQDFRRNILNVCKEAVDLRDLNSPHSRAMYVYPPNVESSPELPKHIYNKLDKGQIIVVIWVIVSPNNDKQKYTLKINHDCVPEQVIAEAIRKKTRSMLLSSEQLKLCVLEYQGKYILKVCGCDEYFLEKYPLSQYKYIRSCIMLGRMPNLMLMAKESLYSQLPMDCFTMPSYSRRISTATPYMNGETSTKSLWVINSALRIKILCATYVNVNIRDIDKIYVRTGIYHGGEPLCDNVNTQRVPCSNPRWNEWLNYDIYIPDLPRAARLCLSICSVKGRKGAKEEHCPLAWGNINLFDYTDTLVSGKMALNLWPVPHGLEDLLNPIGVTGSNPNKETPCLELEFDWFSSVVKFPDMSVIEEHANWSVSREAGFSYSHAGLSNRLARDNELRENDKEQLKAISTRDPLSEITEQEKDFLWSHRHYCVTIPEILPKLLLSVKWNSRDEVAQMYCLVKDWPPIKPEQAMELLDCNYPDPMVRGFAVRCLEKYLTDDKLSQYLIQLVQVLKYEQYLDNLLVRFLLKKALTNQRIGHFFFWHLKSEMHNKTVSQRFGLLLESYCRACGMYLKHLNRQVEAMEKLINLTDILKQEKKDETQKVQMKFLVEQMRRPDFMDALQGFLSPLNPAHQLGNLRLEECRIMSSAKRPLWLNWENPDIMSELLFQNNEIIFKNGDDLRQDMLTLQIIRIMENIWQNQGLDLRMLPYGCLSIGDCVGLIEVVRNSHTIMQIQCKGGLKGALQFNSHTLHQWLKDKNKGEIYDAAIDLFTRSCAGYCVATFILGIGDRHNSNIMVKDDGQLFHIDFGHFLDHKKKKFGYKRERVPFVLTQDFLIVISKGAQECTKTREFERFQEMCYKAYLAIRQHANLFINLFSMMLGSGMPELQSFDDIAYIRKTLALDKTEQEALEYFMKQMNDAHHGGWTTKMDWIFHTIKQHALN

[3] = Metabolic stability in human liver microsomes assessed as clearance at 1 uM measured upto 60 mins in presence of NADPH by measuring protein; assay type: ADME, Microsome; details: 1 h
DOHH-2 = test: Antiproliferative activity against human DOHH-2 cells assessed as cell growth inhibition measured after 72 hrs by MTT assay; assay type: functional, cell-based; details: DOHH-2, 72 h
[4] = Metabolic stability in human liver microsomes assessed as half life at 1 uM measured upto 60 mins in presence of NADPH; assay type: ADME, Microsome
SU-DHL-6 = test: Antiproliferative activity against human SU-DHL-6 cells assessed as cell growth inhibition measured after 72 hrs by MTT assay; assay type: functional, cell-based; details: SU-DHL-6, 72 h
SUD4 = test: Antiproliferative activity against human SU-DHL-4 cells assessed as cell growth inhibition measured after 72 hrs by MTT assay; assay type: functional, cell-based; details: SU-DHL-4, 72 h
[5] = target: T1, Phosphatidylinositol 4,5-bisphosphate 3-kinase catalytic subunit gamma isoform (Homo sapiens, UniProt P48736); test: Inhibition of N-terminal His6-tagged recombinant full length human PI3Kgamma expressed in baculovirus infected Sf21 insect cells at 0.1 uM by HTRF assay relative to control
T1 sequence (P48736 whole entry, looked up, canonical isoform): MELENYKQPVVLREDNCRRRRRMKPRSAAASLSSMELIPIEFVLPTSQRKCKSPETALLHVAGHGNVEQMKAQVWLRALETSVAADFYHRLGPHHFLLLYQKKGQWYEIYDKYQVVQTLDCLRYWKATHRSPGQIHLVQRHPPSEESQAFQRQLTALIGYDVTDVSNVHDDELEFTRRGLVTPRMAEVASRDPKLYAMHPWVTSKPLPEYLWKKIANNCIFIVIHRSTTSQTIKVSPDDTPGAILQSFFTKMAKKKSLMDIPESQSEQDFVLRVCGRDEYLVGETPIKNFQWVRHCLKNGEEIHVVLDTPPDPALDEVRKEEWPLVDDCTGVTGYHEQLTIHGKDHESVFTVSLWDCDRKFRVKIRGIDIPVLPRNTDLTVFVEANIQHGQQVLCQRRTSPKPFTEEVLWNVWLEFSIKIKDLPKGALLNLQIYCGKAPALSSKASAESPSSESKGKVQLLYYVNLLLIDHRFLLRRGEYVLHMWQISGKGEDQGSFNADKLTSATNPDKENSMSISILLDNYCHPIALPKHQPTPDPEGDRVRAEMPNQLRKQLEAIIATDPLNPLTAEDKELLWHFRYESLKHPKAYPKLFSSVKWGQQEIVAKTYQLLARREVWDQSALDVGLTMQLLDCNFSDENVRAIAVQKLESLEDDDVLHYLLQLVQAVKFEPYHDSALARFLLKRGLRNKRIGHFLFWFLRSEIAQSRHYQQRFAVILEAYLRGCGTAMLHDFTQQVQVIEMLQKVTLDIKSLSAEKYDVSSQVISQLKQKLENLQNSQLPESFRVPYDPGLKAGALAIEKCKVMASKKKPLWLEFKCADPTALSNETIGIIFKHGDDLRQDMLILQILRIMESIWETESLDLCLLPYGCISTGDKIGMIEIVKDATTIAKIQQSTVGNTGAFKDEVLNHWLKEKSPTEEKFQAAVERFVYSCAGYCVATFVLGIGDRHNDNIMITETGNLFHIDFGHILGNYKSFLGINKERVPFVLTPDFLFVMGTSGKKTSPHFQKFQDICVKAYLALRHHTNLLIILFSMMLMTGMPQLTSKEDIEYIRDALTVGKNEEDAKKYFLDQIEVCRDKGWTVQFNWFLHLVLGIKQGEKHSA

[6] = target: Phosphatidylinositol 4,5-bisphosphate 3-kinase catalytic subunit beta isoform (Homo sapiens, UniProt P42338); test: Inhibition of N-terminal His6-tagged recombinant full length human PI3Kbeta expressed in baculovirus infected Sf21 insect cells at 1 uM by HTRF assay relative to control
Phosphatidylinositol 4,5-bisphosphate 3-kinase catalytic subunit beta isoform, sequence (P42338 whole entry, looked up, canonical isoform): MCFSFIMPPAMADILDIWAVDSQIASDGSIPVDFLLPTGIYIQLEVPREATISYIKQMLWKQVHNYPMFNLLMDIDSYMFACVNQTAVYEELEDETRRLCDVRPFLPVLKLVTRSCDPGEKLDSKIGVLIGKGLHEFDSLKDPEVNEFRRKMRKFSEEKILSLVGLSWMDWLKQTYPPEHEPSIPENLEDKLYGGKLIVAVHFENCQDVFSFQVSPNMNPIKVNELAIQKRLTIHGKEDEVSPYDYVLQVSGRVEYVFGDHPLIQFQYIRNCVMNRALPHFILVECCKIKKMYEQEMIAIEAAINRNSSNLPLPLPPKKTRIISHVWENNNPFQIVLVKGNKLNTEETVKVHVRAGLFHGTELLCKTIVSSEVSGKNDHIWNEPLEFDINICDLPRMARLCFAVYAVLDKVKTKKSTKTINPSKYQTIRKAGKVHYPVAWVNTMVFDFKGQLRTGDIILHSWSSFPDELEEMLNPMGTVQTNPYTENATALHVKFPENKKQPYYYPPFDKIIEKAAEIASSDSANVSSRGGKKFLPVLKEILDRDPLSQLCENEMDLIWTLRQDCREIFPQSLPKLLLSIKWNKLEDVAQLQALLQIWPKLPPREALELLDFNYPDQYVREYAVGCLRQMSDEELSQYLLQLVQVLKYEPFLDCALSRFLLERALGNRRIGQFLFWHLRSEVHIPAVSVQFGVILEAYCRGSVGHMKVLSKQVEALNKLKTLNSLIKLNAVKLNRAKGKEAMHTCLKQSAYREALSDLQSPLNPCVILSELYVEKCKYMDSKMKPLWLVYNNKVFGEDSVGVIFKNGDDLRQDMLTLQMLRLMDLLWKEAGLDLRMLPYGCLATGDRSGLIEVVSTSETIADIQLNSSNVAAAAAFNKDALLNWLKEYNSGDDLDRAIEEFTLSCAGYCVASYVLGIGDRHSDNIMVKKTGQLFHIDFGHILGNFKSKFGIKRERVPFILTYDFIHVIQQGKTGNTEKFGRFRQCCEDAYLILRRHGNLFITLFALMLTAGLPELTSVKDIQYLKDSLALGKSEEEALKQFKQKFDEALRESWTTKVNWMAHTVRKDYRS

[7] = target: T2, Phosphatidylinositol 4,5-bisphosphate 3-kinase catalytic subunit delta isoform (Homo sapiens) (UniProt O00329); test: Inhibition of N-terminal His6-tagged recombinant full length human PI3Kdelta expressed in baculovirus infected Sf21 insect cells at 0.1 uM by HTRF assay relative to control
T2 sequence (whole entry): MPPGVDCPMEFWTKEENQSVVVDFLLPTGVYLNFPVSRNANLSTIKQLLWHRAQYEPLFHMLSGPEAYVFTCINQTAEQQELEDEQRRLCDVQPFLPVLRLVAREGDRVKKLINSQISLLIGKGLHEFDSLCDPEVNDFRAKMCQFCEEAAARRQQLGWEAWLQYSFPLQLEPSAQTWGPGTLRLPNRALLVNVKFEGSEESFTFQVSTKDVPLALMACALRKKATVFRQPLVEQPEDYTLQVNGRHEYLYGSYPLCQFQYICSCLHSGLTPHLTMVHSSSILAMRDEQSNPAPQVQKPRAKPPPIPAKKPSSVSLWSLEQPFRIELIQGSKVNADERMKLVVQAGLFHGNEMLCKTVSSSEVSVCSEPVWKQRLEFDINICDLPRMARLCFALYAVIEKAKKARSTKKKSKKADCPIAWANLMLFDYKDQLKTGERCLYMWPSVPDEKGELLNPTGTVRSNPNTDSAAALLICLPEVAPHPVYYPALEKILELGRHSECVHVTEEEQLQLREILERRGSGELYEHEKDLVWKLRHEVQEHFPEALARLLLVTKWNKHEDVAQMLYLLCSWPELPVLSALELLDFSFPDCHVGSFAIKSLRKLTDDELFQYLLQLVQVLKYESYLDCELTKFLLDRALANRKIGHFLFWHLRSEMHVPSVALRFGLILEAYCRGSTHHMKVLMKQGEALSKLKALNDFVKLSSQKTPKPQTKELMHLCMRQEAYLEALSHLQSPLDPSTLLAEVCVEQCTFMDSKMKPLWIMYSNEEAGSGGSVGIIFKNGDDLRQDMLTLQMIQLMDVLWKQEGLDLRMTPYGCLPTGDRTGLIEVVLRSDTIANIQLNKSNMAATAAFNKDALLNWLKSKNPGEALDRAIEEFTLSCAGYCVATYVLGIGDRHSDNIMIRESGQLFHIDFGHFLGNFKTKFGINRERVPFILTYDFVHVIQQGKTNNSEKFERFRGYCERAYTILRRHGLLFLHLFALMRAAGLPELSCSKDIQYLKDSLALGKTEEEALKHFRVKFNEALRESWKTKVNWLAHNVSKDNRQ

[8] = target: T2, Phosphatidylinositol 4,5-bisphosphate 3-kinase catalytic subunit delta isoform (Homo sapiens); test: Inhibition of N-terminal His6-tagged recombinant full length human PI3Kdelta expressed in baculovirus infected Sf21 insect cells at 1 uM by HTRF assay relative to control
[9] = target: T1, Phosphatidylinositol 4,5-bisphosphate 3-kinase catalytic subunit gamma isoform; test: Inhibition of N-terminal His6-tagged recombinant full length human PI3Kgamma expressed in baculovirus infected Sf21 insect cells at 1 uM by HTRF assay relative to control

remaining at 1 h, 1 µM [1] [%]	inhibition [2] [%]	CLH [3] [mL/min/g]	half-life at 1 µM [4] [h]	IC50 (SU-DHL-6) [nM]	inhibition [5] [%]	inhibition [6] [%]	inhibition [7] [%]	inhibition [8] [%]	inhibition [9] [%]	SMILES	IC50 (DOHH-2) [nM]	IC50 (SUD4) [nM]
59.9	13	20.8	1.11	190	12	19				COc1cncc(-c2cccc3nc([C@@H]4CC[C@H](C)N4c4nc(N)nc(N)c4C#N)n(-c4ccccc4)c(=O)c23)c1	290	120
46.1		28.4	0.813	430	-8	-3	-6			CCOc1cncc(-c2cccc3nc([C@@H]4CC[C@H](C)N4c4nc(N)nc(N)c4C#N)n(-c4ccccc4)c(=O)c23)c1	210	110
32.6	-7	37.4	0.618	280	25	19				C[C@H]1CC[C@@H](c2nc3cccc(-c4cccnc4)c3c(=O)n2-c2ccccc2)N1c1nc(N)nc(N)c1C#N	1010	120
	96			1530	99	105	93	75	96	Cc1cc(N2[C@@H](C)CC[C@H]2c2nc3cccc(Cl)c3c(=O)n2-c2ccccc2)nc(N)n1	1960	1120
51.2	5	16.8	1.38	390	2	13	-2			CCCn1cc(-c2cccc3nc([C@@H]4CC[C@H](C)N4c4nc(N)nc(N)c4C#N)n(-c4ccccc4)c(=O)c23)cn1	690	330
40.4	12	29.6	0.78	320	10	28	1			CC(C)n1cc(-c2cccc3nc([C@@H]4CC[C@H](C)N4c4nc(N)nc(N)c4C#N)n(-c4ccccc4)c(=O)c23)cn1	540	210
	79			2750	85	84	34	18	49	N#Cc1c(N)nc(N)nc1N1[C@H](c2nc3cccc(Cl)c3c(=O)n2-c2cc(F)cc(F)c2)C[C@@H]2CCCC[C@@H]21	3540	1830
45	23	17.8	1.3	260	-2	2	0			C[C@H]1CC[C@@H](c2nc3cccc(-c4cnn(C5CC5)c4)c3c(=O)n2-c2ccccc2)N1c1nc(N)nc(N)c1C#N	390	220
	82			1800	88	84	74	37	41	C[C@H]1CC[C@@H](c2nc3cccc(Cl)c3c(=O)n2-c2ccccc2)N1c1nc(N)nc2[nH]ccc12	3590	4930
	72			310	10	33	10	11	0	C[C@H]1CC[C@@H](c2nc3cccc(Cl)c3c(=O)n2N2CCOCC2)N1c1nc(N)nc(N)c1C#N	370	200
	90			840	51	68	12	7	2	C[C@H]1CC[C@@H](c2nc3cccc(Cl)c3c(=O)n2-c2cc(F)cc(F)c2)N1c1nc(N)nc2[nH]cnc12	2210	770
60	1	17.4	1.33	530	-10	6	-4			CCn1cc(-c2cccc3nc([C@@H]4CC[C@H](C)N4c4nc(N)nc(N)c4C#N)n(-c4ccccc4)c(=O)c23)cn1	740	290
	78			1840	99	106	88	11	100	C[C@H]1CC[C@@H](c2nc3cccc(Cl)c3c(=O)n2-c2ccccc2)N1c1ccnc(N)n1	3970	1200
75.5	78	11.4	2.03	250	30	31	18	-2		C[C@H]1CC[C@@H](c2nc3cccc(Cl)c3c(=O)n2-c2ccccc2)N1c1nc(N)nc2[nH]cnc12	280	180
	91			420	45	53	81	5	-2	C[C@H]1CC[C@@H](c2nc3cccc(Cl)c3c(=O)n2N2CCOCC2)N1c1nc(N)nc2[nH]cnc12	1440	600
	89			410	39	54	15	7	0	C[C@H]1CC[C@@H](c2nc3cccc(Cl)c3c(=O)n2-c2cccnc2)N1c1nc(N)nc2[nH]cnc12	650	510
	88			3150	97	92	76	23	96	C[C@H]1CC[C@@H](c2nc3cccc(Cl)c3c(=O)n2-c2ccccc2)N1c1cc(Cl)nc(N)n1	2920	2900
78.1	8	8	2.89	320	31	13	4			C[C@H]1CC[C@@H](c2nc3cccc(C#Cc4cccnc4)c3c(=O)n2-c2ccccc2)N1c1nc(N)nc(N)c1C#N	690	240
	66			580	14	43	4	1	-8	C[C@H]1CC[C@@H](c2nc3cccc(Cl)c3c(=O)n2-c2cc(F)cc(F)c2)N1c1nc(N)nc(N)c1C#N	1170	360
64.7	-1	13.8	1.67	420	12	20	-8			C[C@H]1CC[C@@H](c2nc3cccc(-c4cnn(C)c4)c3c(=O)n2-c2ccccc2)N1c1nc(N)nc(N)c1C#N	680	300

— ChEMBL document CHEMBL5120922, “Discovery, Optimization, and Evaluation of Potent and Selective PI3Kδ-γ Dual Inhibitors for the Treatment of B-cell Malignancies” (J Med Chem, 2022)
